Molecules are shown by their SMILES.

This test concerns D-Fructose-induced fructose-1-phosphate in HepG2 cells. In words: In vitro cell inhibitory activity test: D-Fructose-induced fructose-1-phosphate in HepG2 cells (LC-MS). It is filed as cell-based. The following applies: D-Fructose 3 h, read-out: EC50 (nM), inhibition of D-Fructose-induced fructose-1-phosphate. The procedure: 1) HepG2 cells in logarithmic growth phase were collected and counted by using a […]. Cell viability was detected by trypan blue exclusion method to ensure that the cell viability was above 90%.
2) A concentration of the HepG2 cells was adjusted, and 81 µL of FBS-free basal medium (starvation treated) cell suspension was added to each 96-well plate with a testing well cell inoculation quantity of 5 × 10^4.
3) The HepG2 cells in the 96-well plates were cultured overnight at 37° C., 5% CO2, and 95% humidity.
1) Before dosing, 9 µL of FBS was added into testing wells of the 96-well plate, and the starvation treatment was stopped.
2) A 10-fold compound solution was prepared, with the highest concentration of 100 µM, 8 concentrations and 3-fold gradient dilution. 10 µL of drug solution was added to each well of the 96-well plate inoculated with the cells, and three repeated wells were set for each drug concentration. 10 µL of 1% DMSO solution was added to the solvent control group, and three repeated wells were set.
3) The cells in the 96-well plates added with the drug were incubated at 37° C., 5% CO2, and 95% humidity for 30 min.
4) A 11-fold D-Fructose solution was prepared, with a concentration of 220 mM. […]
Data were analyzed by GraphPad Prism 5.0 software, a dose-effect curve was obtained by using nonlinear S-curve regression, and the EC50 value was calculated.

On to `C[C@H]1CCN1c1nc(N2C[C@@H]3[C@@H](CC(=O)O)[C@@H]3C2)cc(C(F)(F)F)n1` [PF-06835919], for which the EC50 is 169 nM.

As a reminder, the EC50 is the midpoint of the concentration-response curve.

Values taken from patent publication US20230271947A1, “SALT AND CRYSTAL FORM OF KETOHEXOKINASE INHIBITOR AND USE THEREOF” (SHANDONG XUANZHU PHARMA CO., LTD., priority 2020, published 2023).
